Reference: paper PMC6100468 (2018)

What was measured:
[1] = tested on: F10T (DNA, hairpin, hexaethylene glycol (HEG) linker between nucleotides 10 and 11) TATAGCTATATATAGCTATA; test: FRET melting; conditions: 60 mM K+; 0.2 μM DNA, 1.0 μM compound (methods text: 2 μM, 100 mM LiCl); cacodylate pH 7.4
[2] = tested on: Fc-kit1T (DNA, G4) AGGGAGGGCGCTGGGAGGAGGG; test: microscale thermophoresis; conditions: 100 mM K+; 10 mM Tris-HCl pH 7.4
[3] = tested on: FPu18T (DNA, G4) AGGGTGGGGAGGGTGGGG; test: FRET melting; conditions: 60 mM K+; 0.2 μM DNA, 1.0 μM compound (methods text: 2 μM, 100 mM LiCl); cacodylate pH 7.4
[4] = tested on: F21T (DNA, G4) GGGTTAGGGTTAGGGTTAGGG; test: FRET melting; conditions: 60 mM K+; 0.2 μM DNA, 1.0 μM compound (methods text: 2 μM, 100 mM LiCl); cacodylate pH 7.4
[5] = tested on: Fc-kit1T (DNA, G4) AGGGAGGGCGCTGGGAGGAGGG; test: FRET melting; conditions: 60 mM K+; 0.2 μM DNA, 1.0 μM compound (methods text: 2 μM, 100 mM LiCl); cacodylate pH 7.4

Structure (SMILES) | ΔTm [1] [°C] | Kd [2] [µM] | ΔTm [3] [°C] | ΔTm [4] [°C] | ΔTm [5] [°C]
COc1cc2c(cc1OC)-c1cc3ccc(OC)c(OCC(=O)N[C@@H](Cc4ccccc4)C(=O)N[C@@H](Cc4cnc[nH]4)C(=O)N[C@@H](CCCNC(=N)N)C(N)=O)c3c[n+]1CC2 | 0.0 ± 1.0 | 9.68 ± 0.57 | – | – | –
COc1cc2c(cc1OC)-c1cc3ccc(OC)c(OCC(=O)N[C@@H](Cc4ccccc4)C(=O)N[C@@H](CCCCN)C(=O)N[C@@H](CCCN=C(N)N)C(N)=O)c3c[n+]1CC2 | – | 6.60 ± 0.472 | – | – | –
COc1cc2c(cc1OC)-c1cc3ccc(OC)c(OCC(=O)N[C@@H](CCCCN)C(=O)N[C@@H](Cc4ccccc4)C(=O)N[C@@H](CCCNC(=N)N)C(N)=O)c3c[n+]1CC2 | – | 8.00 ± 0.89 | – | 0.0 ± 1.2 | –
COc1cc2c(cc1OC)-c1cc3ccc(OC)c(OC)c3c[n+]1CC2 | – | 3.25 ± 0.32 | 11.2 ± 0.1 | 1.8 ± 0.2 | –
COc1cc2c(cc1OC)-c1cc3ccc(OC)c(OCC(=O)N[C@@H](Cc4ccccc4)C(=O)NCC(=O)N[C@@H](CCCCN)C(N)=O)c3c[n+]1CC2 | – | 11.10 ± 0.51 | 5.0 ± 1.0 | – | 6.1 ± 0.9

Other lines, results leading:

ΔTm [1] [°C] | Kd [2] [µM] | ΔTm [3] [°C] | ΔTm [4] [°C] | ΔTm [5] [°C] | Structure (SMILES)
– | 1.47 ± 0.12 | 19.6 ± 0.9 | 10.6 ± 0.2 | – | COc1cc2c(cc1OC)-c1cc3ccc(OC)c(OCC(=O)N[C@@H](CCCNC(=N)N)C(=O)N[C@@H](CCCNC(=N)N)C(N)=O)c3c[n+]1CC2
0.8 ± 0.4 | 1.41 ± 0.09 | 23.8 ± 0.6 | 11.0 ± 0.1 | 21.7 ± 0.8 | COc1cc2c(cc1OC)-c1cc3ccc(OC)c(OCC(=O)N[C@@H](Cc4ccccc4)C(=O)N[C@@H](CCCNC(=N)N)C(N)=O)c3c[n+]1CC2
– | 2.65 ± 0.33 | – | – | – | COc1cc2c(cc1OC)-c1cc3ccc(OC)c(OCC(=O)N[C@@H](CCCCN)C(=O)N[C@@H](CCCNC(=N)N)C(N)=O)c3c[n+]1CC2
